Test results taken from US5744452A, “γ-L-glutamyl containing immunomodulator compounds and methods therewith” (Wei; Edward T., priority 1995, dated 1998).

Experiments:
murine spleen cells = test: IL-2 production by Concanavalin A activated murine spleen cells (CTLL-2 cell assay); format: cell-based, CBA mice; conditions: for IL-2 production by murine spleen cells: Table 2; for interleukin-2 production by murine spleen cells: Table 6
Experimental: Spleen cells from CBA mice were cultured in tissue culture plates at a 10^6 cells/ml in RPMI-1640 medium supplemented with 10% fetal calf serum, 2 mM L-glutamine, and 80 μg/ml of Gentamycin. 1 μg/ml of Concanavalin A was used to activate basal IL-2 production from murine spleen lymphocytes. Bestim was added to cell cultures at the "0" time. After 36 hours supernatants were collected, centrifuged at 800 xg and IL-2 levels were measured in a CTLL-2 cell assay (Gillis et al., "T-cell Growth Factor: Parameters of Production and Quantitative Assay for Activity," J. Immunol., 120: 2027-2032, 1978). […] However, due to the variations in the method for IL-2 measurements clear dose-response comparisons could not be achieved.
IL-2 production studies have been performed using murine spleen lymphocytes activated with Concanavalin A. Spleen cells from CBA mice were cultured in a tissue culture plates at a 1×10^6 /ml concentration in RPMI-1640 medium supplemented with 10% fetal calf serum, 2 mM L-glutamine,80 μg/ml Gentamycin and 1 μg/ml Concanavalin A as an inducer of basal level IL-2 synthesis. Bestim at various concentration was added to cell cultures at the "0" time. After 36 hours supernatants were collected, centrifuged at 800 xg and used for IL-2 levels determination in a CTLL-2 cell assay (Gillis et al., 1978). IL-2-dependent CTLL-2 cells were grown in RPMI-1640 medium in the presence of 1-2 U/ml recombinant IL-2 as a growth factor. Before assay, cells were washed twice to remove IL-2 from the medium. After this wash tested supernatants were added and cells were incubated for 36 hours. IL-2-induced proliferation was assayed using a ^3 H-thymidine incorporation method.

murine thymocytes = test: Murine thymocyte differentiation after intraperitoneal injection; format: in vivo, CBA mice; conditions: for Percent of thymocytes expressing L3T4 / Percent of thymocytes expressing Lyt2 / Percent of thymocytes expressing Thy-1: 24 hours
Experimental: Bestim was injected into 3-month old CBA mice at doses ranging from 10 ng/kg to 100 μg/kg intraperitoneally. Mice were killed by cervical dislocation 24 hours after injection, the thymus gland removed, and the cells isolated by centrifugation and washed in RPMI-1640 medium. Expression of surface differentiation antigens were measured using monoclonal antibodies to L3T4 (T-helper marker), Lyt 2 (T-cytotoxic marker) and Thy-1 (common T-lymphocyte marker) molecules in a cytotoxicity assay using complement-dependent cell lysis (Terasaki et al., 1972). Dead cells were counted microscopically after eosin staining.

dogs [1] = test: Acute toxicity, single intramuscular dose, dogs; format: in vivo; conditions: single 500.0 mg/kg intramuscular, 14 days
Experimental: (§1) To illustrate this point and in preparation for clinical studies, acute and sub-acute toxicity studies were conducted in animals with Bestim according to conditions of good-laboratory practices. Bestim, prepared as a sterile lyophitized powder in ampoules, was dissolved in sterile 0.9% NaCl solution and injected intramuscularly in all experiments.
Acute toxicity: Rodents (mice and rats) and dogs were randomized into groups of equal numbers of males and females. Animals were inspected daily for 14 days after a single dose of Bestim (intramuscular):
Body weight, overall appearance and behavior were evaluated each day and, at the end of two weeks, macroscopic and histopathological examinations of the internal organs (heart, lungs, pleural and peritoneal cavities, muscles, stomach, small and large intestine, liver, spleen, pancreas, kidneys, bladder, thyroid, brain, skin and testes/ovaries) of all animals were conducted.

dogs [2] = test: Subacute toxicity, repeated intramuscular injection, dogs; format: in vivo
Experimental: as §1
Subacute Toxicity Studies: In a second set of experiments, Bestim was administered for longer durations, accordingly:
dogs: 1 mg/kg, 10 mg/kg and 100 mg/kg, administered intramuscularly daily for 1 month and for 3 months.

[3] = system: patient with colon cancer; test: Case History 1: immunodeficiency after cancer chemotherapy (Patient A); format: in vivo, human
Experimental: Patient A was admitted with the diagnosis of colon cancer. Laboratory confirmed immunodeficiency which appeared as a complication of the main illness. Bestim preparation was applied by 5 daily intramuscular injections of 0.1 mg.

patient with sepsis = test: Case History 2: immunodeficiency caused by sepsis (Patient B); format: in vivo, human
Experimental: Patient B was in the clinic with a diagnosis of sepsis. Immunodeficiency was confirmed by laboratory tests. Bestim was administered in the standard 5 daily intramuscular doses of 0.1 mg.

[4] = system: patient after surgical removal of thymus gland; test: Case History 3: immunodeficiency caused by surgical removal of the thymus (Patient C); format: in vivo, human
Experimental: Patient C was in the clinic for immunodeficiency caused by surgical removal of the thymus gland. Bestim was administered in the standard 5 daily intramuscular dose of 0.1 mg.

[5] = system: patients with prostatitis caused by Chlamydian infection; test: Trial in prostatitis caused by Chlamydian infection; format: in vivo, human; conditions: fourteen treated, 30 control patients
Experimental: In addition to these studies, a trial was conducted using Bestim for the treatment of prostatitis caused by Chlamydian infection. Fourteen patients were treated with Bestim with 30 control patients.

aminopeptidases = test: Degradation by aminopeptidases; format: in vitro ADME
[6] = After Bestim Therapy (5 daily i.m. 0.1 mg)

**Q.** For N[C@@H](CCC(=O)N[C@@H](Cc1c[nH]c2ccccc12)C(=O)O)C(=O)O [Bestim, γ-L-glutamyl-L-tryptophan], which “IL-2 production by murine spleen cells” value (murine spleen cells; peptide 0.001 μg/ml, 36 hours) is on record?
**A.** Its value is 159 ± 13.

**Q.** What about the “IL-2 production by murine spleen cells” value (murine spleen cells; peptide 0.01 μg/ml) of the same molecule?
**A.** The value was 134 ± 8.

**Q.** And the “IL-2 production by murine spleen cells” value (murine spleen cells; peptide 0.1 μg/ml)?
**A.** Its value is 98 ± 5.

**Q.** And the “IL-2 production by murine spleen cells” value (murine spleen cells; peptide 1.0 μg/ml)?
**A.** Its value is 157 ± 10.

**Q.** And the “IL-2 production by murine spleen cells” value (murine spleen cells; peptide 10 μg/ml)?
**A.** The value was 95 ± 4.

**Q.** And the “IL-2 production by murine spleen cells” value (murine spleen cells; peptide 100 μg/ml)?
**A.** The value was 112 ± 3.

**Q.** What about the “interleukin-2 production by murine spleen cells” value (from here on “interleukin-2 production”) (murine spleen cells; peptide 0.001 μg/ml) of the same molecule?
**A.** Its value is 149 ± 2.

**Q.** What about the “interleukin-2 production” value (murine spleen cells; peptide 0.01 μg/ml) of the same molecule?
**A.** Its value is 162 ± 4.

**Q.** What about the “interleukin-2 production” value (murine spleen cells; peptide 0.1 μg/ml) of the same molecule?
**A.** The value was 172 ± 9.

**Q.** What about the “interleukin-2 production” value (murine spleen cells; peptide 1.0 μg/ml) of the same molecule?
**A.** Its value is 271 ± 11.

**Q.** And the “interleukin-2 production” value (murine spleen cells; peptide 10 μg/ml)?
**A.** The value was 160 ± 8.

**Q.** What about the “interleukin-2 production” value (murine spleen cells; peptide 100 μg/ml) of the same molecule?
**A.** The value was 186 ± 6.

**Q.** What about the “effect on IL-2 secretion from cells” value (murine spleen cells; conclusion from Table 2) of the same molecule?
**A.** Its value is “enhances IL-2 secretion from cells at low doses”.

**Q.** What about the “Percent of thymocytes expressing L3T4” value (murine thymocytes; 0.01 μg/kg i.p.) of the same molecule?
**A.** Its value is 40 ± 8%.

**Q.** What about the “Percent of thymocytes expressing Lyt2” value (murine thymocytes; 0.01 μg/kg i.p.) of the same molecule?
**A.** Its value is 45 ± 5%.

**Q.** What about the “Percent of thymocytes expressing Thy-1” value (murine thymocytes; 0.01 μg/kg i.p.) of the same molecule?
**A.** The value was 95 ± 3%.

**Q.** And the “Percent of thymocytes expressing L3T4” value (murine thymocytes; 0.1 μg/kg i.p.)?
**A.** The value was 55 ± 1%.

**Q.** And the “Percent of thymocytes expressing Lyt2” value (murine thymocytes; 0.1 μg/kg i.p.)?
**A.** Its value is 44 ± 2%.

**Q.** And the “Percent of thymocytes expressing Thy-1” value (murine thymocytes; 0.1 μg/kg i.p.)?
**A.** Its value is 89 ± 2%.

**Q.** And the “Percent of thymocytes expressing L3T4” value (murine thymocytes; 1 μg/kg i.p.)?
**A.** Its value is 54 ± 1%.

**Q.** And the “Percent of thymocytes expressing Lyt2” value (murine thymocytes; 1 μg/kg i.p.)?
**A.** The value was 46 ± 1%.

**Q.** And the “Percent of thymocytes expressing Thy-1” value (murine thymocytes; 1 μg/kg i.p.)?
**A.** Its value is 91 ± 1%.

**Q.** What about the “Percent of thymocytes expressing L3T4” value (murine thymocytes; 10 μg/kg i.p.) of the same molecule?
**A.** Its value is 64 ± 1%.

**Q.** And the “Percent of thymocytes expressing Lyt2” value (murine thymocytes; 10 μg/kg i.p.)?
**A.** The value was 47 ± 2%.

**Q.** What about the “Percent of thymocytes expressing Thy-1” value (murine thymocytes; 10 μg/kg i.p.) of the same molecule?
**A.** The value was 90 ± 1%.

**Q.** And the “Percent of thymocytes expressing L3T4” value (murine thymocytes; 100 μg/kg i.p.)?
**A.** The value was 70 ± 1%.

**Q.** And the “Percent of thymocytes expressing Lyt2” value (murine thymocytes; 100 μg/kg i.p.)?
**A.** The value was 48 ± 1%.

**Q.** And the “Percent of thymocytes expressing Thy-1” value (murine thymocytes; 100 μg/kg i.p.)?
**A.** The value was 91 ± 0%.

**Q.** And the “T-lymphocyte subset induced to differentiate in murine thymus” value (murine thymocytes; conclusion from Table 3)?
**A.** The value was “preferentially induces differentiation of a subset of T-helper lymphocytes”.

**Q.** What about the deaths (dogs [1]) of the same molecule?
**A.** Its deaths is “No deaths were observed”.

**Q.** What about the “general appearance, behavior, body weight, hematological, biochemical and physiological indices, macroscopic and histopathological examination of internal organs” value (dogs [1]) of the same molecule?
**A.** The value was “all within normal limits”.

**Q.** What about the “macroscopic and histological examination of organs” value (dogs [2]; dogs, 1, 10 and 100 mg/kg i.m. daily for 1 and 3 months) of the same molecule?
**A.** The value was “no significant changes”.

**Q.** And the “local inflammatory reactions at the site of injection” value (dogs [2]; dogs, repeated i.m. injection)?
**A.** The value was “no local inflammatory reactions at the site of injection”.

**Q.** And the Lymphocytes ([3]; After Bestim Therapy)?
**A.** The Lymphocytes was 1800 per mm^3.

**Q.** What about the “T-Lymphocytes (CD3)” value ([3]; After Bestim Therapy) of the same molecule?
**A.** Its value is 60%.

**Q.** What about the “T-helper lymphocytes (CD4)” value ([3]; After Bestim Therapy) of the same molecule?
**A.** Its value is 35%.

**Q.** What about the White blood cells [3, 6] of the same molecule?
**A.** The White blood cells was 6.9 × 10^3 per mm^3.

**Q.** And the Lymphocytes ([3]; Before Therapy)?
**A.** The Lymphocytes was 200 per mm^3.

**Q.** What about the “T-Lymphocytes (CD3)” value ([3]; Before Therapy) of the same molecule?
**A.** Its value is 23%.

**Q.** And the “T-helper lymphocytes (CD4)” value ([3]; Before Therapy)?
**A.** The value was 14%.

**Q.** What about the White blood cells ([3]; Before Therapy) of the same molecule?
**A.** The White blood cells was 5.5 × 10^3 per mm^3.

**Q.** What about the Lymphocytes (patient with sepsis; After Bestim Therapy) of the same molecule?
**A.** The Lymphocytes was 1370 per mm^3.

**Q.** What about the “T-Lymphocytes (CD3)” value (patient with sepsis; After Bestim Therapy) of the same molecule?
**A.** Its value is 75%.

**Q.** And the “T-helper lymphocytes (CD4)” value (patient with sepsis; After Bestim Therapy)?
**A.** Its value is 50%.

**Q.** What about the White blood cells (patient with sepsis; [6]) of the same molecule?
**A.** Its White blood cells is 9.8 × 10^3 per mm^3.

**Q.** What about the Lymphocytes (patient with sepsis; Before Therapy) of the same molecule?
**A.** Its Lymphocytes is 560 per mm^3.

**Q.** What about the “T-Lymphocytes (CD3)” value (patient with sepsis; Before Therapy) of the same molecule?
**A.** The value was 23%.

**Q.** And the “T-helper lymphocytes (CD4)” value (patient with sepsis; Before Therapy)?
**A.** Its value is 11%.

**Q.** And the White blood cells (patient with sepsis; Before Therapy)?
**A.** Its White blood cells is 10.2 × 10^3 per mm^3.

**Q.** And the “T-Lymphocytes (CD3)” value ([4]; After Bestim Therapy)?
**A.** The value was 49%.

**Q.** What about the Lymphocytes [4, 6] of the same molecule?
**A.** Its Lymphocytes is 1980 per mm^3.

**Q.** What about the Lymphocytes ([4]; Before Therapy) of the same molecule?
**A.** The Lymphocytes was 1100 per mm^3.

**Q.** And the “T-Lymphocytes (CD3)” value ([4]; Before Therapy)?
**A.** Its value is 10%.

**Q.** What about the “inflammation in the prostate” value [5] of the same molecule?
**A.** The value was “inflammation in the prostate was ameliorated”.

**Q.** And the “activity of aminopeptidases against the compound” value (aminopeptidases)?
**A.** The value was “not active”.
